Experimental data from publication PMC10349829, “Functional characterization of the transient receptor potential melastatin 2 (TRPM2) cation channel from Nematostella vectensis reconstituted into lipid bilayer” (Scientific Reports, 2023).
Like-named read-outs stand apart in the source and are kept apart here.

Target: T1, nvTRPM2 (transient receptor potential melastatin 2) (Nematostella vectensis, UniProt A7T1N0)
T1 construct: gene TRPM2; purified and reconstituted into planar lipid bilayers
Assay: single-channel recording of purified channel in planar lipid bilayers (activation)
Format: biochemical

T1 sequence (A7T1N0 whole entry): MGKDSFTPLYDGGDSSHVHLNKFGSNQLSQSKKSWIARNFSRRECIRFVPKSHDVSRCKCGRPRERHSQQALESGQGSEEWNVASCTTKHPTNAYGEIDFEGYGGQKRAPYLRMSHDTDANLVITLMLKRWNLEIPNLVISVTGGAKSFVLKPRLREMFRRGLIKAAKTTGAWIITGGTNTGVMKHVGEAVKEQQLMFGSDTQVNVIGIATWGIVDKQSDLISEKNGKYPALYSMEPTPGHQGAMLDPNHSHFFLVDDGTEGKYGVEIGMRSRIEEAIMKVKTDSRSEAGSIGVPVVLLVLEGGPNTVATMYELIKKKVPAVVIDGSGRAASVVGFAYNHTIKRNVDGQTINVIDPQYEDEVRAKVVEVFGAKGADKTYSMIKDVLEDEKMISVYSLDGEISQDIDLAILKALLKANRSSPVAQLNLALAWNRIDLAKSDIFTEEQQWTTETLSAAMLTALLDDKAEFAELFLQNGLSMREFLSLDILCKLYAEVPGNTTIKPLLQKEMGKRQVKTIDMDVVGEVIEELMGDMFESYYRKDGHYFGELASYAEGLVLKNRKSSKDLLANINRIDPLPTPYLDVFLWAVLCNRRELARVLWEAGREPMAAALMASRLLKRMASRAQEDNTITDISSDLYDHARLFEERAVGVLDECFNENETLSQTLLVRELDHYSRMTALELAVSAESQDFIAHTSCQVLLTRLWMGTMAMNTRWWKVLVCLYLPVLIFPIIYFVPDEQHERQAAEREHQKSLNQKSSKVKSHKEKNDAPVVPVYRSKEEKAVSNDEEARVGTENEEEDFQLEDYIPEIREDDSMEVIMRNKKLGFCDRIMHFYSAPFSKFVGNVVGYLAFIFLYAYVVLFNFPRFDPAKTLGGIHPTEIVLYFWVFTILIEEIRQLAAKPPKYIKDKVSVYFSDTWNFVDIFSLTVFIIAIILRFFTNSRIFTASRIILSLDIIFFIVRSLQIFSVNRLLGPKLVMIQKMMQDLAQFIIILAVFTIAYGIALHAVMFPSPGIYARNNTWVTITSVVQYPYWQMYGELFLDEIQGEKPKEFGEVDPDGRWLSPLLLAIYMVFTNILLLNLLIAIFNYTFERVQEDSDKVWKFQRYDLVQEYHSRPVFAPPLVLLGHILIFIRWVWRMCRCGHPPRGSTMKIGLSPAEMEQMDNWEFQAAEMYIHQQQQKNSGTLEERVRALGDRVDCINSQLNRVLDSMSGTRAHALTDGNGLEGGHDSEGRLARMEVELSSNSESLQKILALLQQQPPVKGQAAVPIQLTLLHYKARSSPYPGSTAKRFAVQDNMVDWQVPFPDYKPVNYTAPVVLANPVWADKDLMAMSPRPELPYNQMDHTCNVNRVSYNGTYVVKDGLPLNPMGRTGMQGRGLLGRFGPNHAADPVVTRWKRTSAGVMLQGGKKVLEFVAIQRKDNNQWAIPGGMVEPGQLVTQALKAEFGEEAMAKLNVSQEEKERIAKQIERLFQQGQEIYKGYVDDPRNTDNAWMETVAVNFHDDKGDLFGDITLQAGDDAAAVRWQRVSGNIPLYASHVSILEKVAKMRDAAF

| Structure (SMILES) | EC50 (read-out: EC50) [nM] | EC50 [nM] |
| --- | --- | --- |
| Nc1ncnc2c1ncn2[C@@H]1O[C@H](COP(=O)(O)OP(=O)(O)OC[C@H]2OC(O)[C@H](O)[C@@H]2O)[C@@H](O)[C@H]1O (some centres unmarked) [ADPR] | ~1000 |  |
| Nc1ncnc2c1ncn2[C@@H]1O[C@H](COP(=O)(O)OP(=O)(O)OC[C@H]2OC(O)[C@H](O)[C@@H]2O)[C@@H](O)[C@H]1OP(=O)(O)O (some centres unmarked) [ADPRP] |  | ~200 |
